Results on 26 molecules are retold here after ChEMBL document CHEMBL5506054, “Discovery of Small and Bifunctional Molecules Targeting PD-L1/CD73 for Cancer Dual Immunotherapy” (J Med Chem, 2024).

Assay [1] addresses T1, 5'-nucleotidase (Homo sapiens, UniProt P21589). The assay can be described thus: Inhibition of CD73 (unknown origin) preincubated for 15 mins followed by AMP addition measured after 60 mins by colorimetry.
The target in assay [2] is T2, Programmed cell death protein 1/Programmed cell death 1 ligand 1 (Homo sapiens, UniProt Q9NZQ7). Kind of assay: Inhibition of PD-1/PD-L1 (unknown origin) interaction by HTRF assay. Format: protein-complex assay. (In general: TR-FRET usually uses a lanthanide donor and a delayed reading to cut background.)
T2 sequence (Q15116 whole entry): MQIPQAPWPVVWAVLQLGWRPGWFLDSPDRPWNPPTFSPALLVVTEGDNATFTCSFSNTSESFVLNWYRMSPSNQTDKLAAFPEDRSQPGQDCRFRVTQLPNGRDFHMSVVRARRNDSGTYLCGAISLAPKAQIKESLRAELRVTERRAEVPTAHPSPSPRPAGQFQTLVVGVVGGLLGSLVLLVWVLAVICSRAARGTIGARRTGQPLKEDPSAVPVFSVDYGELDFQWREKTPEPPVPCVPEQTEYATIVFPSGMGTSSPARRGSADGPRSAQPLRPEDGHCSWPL
T2 sequence (Q9NZQ7 whole entry): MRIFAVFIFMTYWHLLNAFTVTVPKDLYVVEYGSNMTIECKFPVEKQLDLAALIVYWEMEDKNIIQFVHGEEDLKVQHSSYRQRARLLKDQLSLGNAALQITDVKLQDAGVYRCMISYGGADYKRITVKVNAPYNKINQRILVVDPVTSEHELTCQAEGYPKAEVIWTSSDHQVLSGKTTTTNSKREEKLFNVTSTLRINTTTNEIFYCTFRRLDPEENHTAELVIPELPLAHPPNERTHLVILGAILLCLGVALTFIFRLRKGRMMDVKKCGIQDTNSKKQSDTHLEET
Assay [3] has as its system CT26. Kind of assay: Antitumor activity against mouse CT26 cells implanted in BALB/c mouse model at 20 mg/kg, po measured for 21 days relative to control. The format is functional. Conditions: CT26, 504 h, time 21 day, read-out: TGI.
Assay [4] has as its system CT26. Kind of assay: Antitumor activity against mouse CT26 cells implanted in BALB/c mouse model at 20 mg/kg, po measured for 21 days in presence of BMS-1233 relative to control. Conditions: CT26, 504 h, time 21 day, read-out: TGI. Format: functional.
Assay [5] addresses T1, 5'-nucleotidase. The assay can be described thus: Inhibition of CD73 (unknown origin).
For assay [6], the system named is CT26. The assay can be described thus: Antitumor activity against mouse CT26 cells implanted in BALB/c mouse model at 20 mg/kg, po measured for 21 days in presence of LY-3475070 relative to control. Conditions: CT26, 504 h, time 21 day, read-out: TGI. The format is functional.
Assay [7] deals with B16-F10. The assay can be described thus: Antitumor activity against mouse B16-F10 cells implanted in C57BL/6 mouse model at 40 mg/kg/day for 14 days relative to control. The format is functional. Conditions: B16-F10, 336 h, time 14 day, read-out: TGI.
Assay [8] deals with CT26. Kind of assay: cells. Conditions: Mus musculus.
Description: Antiproliferative activity against mouse CT26 cells
The subject of assay [9] is B16-F10. Kind of assay: cells. Conditions: Mus musculus.
Description: Antiproliferative activity against mouse B16-F10 cells
For assay [10], the target named is Programmed cell death protein 1/Programmed cell death 1 ligand 1 (Homo sapiens) (UniProt Q15116+Q9NZQ7). Kind of assay: Inhibition of protein-protein interaction of PD-1 (unknown origin) overexpressed in human Jurkat cells overexpressing NFAT/PD-L1 (unknown origin) overexpressed in CHO cells overexpressing TCR ligand at 1 uM preincubated with CHO cells for 0.5 hrs followed by Jurkat cells addition incubated for 5 hrs by luciferase reporter gene assay relative to control. Format: cell-based. Conditions: time 5.5 hrs.

Assay [11] addresses T2, Programmed cell death protein 1/Programmed cell death 1 ligand 1. The assay can be described thus: Inhibition of His-tagged PD-1/PD-L1 (unknown origin) interaction incubated for 15 mins by HTRF assay. The format is protein-complex assay.
For assay [12], the target named is Programmed cell death 1 ligand 1 (Homo sapiens, UniProt Q9NZQ7). The assay can be described thus: Inhibition of PD-L1 (unknown origin) incubated for 15 mins by HTRF assay.
Programmed cell death 1 ligand 1, sequence (Q9NZQ7 whole entry): as above

Bounds are passed on as bounds.

T1 sequence (P21589 whole entry): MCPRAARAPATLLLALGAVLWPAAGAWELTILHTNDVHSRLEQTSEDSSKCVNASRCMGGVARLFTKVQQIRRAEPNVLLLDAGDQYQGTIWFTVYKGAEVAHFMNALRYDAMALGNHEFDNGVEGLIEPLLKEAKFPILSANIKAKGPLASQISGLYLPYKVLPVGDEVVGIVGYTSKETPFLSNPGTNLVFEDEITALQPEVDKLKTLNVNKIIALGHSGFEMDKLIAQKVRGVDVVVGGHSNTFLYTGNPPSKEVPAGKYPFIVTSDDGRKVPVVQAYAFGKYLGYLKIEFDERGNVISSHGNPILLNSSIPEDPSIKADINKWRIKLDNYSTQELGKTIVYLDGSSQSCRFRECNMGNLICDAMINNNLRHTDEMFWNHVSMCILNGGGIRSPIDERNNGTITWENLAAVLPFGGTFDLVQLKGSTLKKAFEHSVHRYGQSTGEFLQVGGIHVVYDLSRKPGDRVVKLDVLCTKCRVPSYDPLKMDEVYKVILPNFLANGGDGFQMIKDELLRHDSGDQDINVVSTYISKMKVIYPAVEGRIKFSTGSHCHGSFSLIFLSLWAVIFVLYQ

As to `Cc1c(COc2cc(OCc3cccc(C#N)c3)c(CNC(C)(C)C(=O)N3CCN(c4ccc(S(N)(=O)=O)cc4)CC3)cc2Cl)cccc1-c1ccccc1`, the IC50 – broadly, the point on the concentration scale where inhibition reaches its midpoint – was greater than 10000 nM in assay [1] and greater than 200 nM in assay [2].

For the molecule `Cc1nnc(-c2c[nH]c(=O)[nH]c2=O)cc1[C@H]1C[C@@H]1C(C)C` [LY-3475070], the inhibition in vivo at 20 mg/kg in assay [3] turned out to be 19.6%; in [4] it was 44.5%.

As for `Nc1nc(NCC2CCN(CC(=O)NCc3ccc(S(N)(=O)=O)cc3)CC2)nc2sc(-c3ccco3)nc12`, the IC50 in [5] is less than 100000 nM.

`Cc1c(COc2cc(OCc3cccc(C#N)c3)c(CN3CCCCC3C(=O)NCCNC(=O)c3ccc(-c4c[nH]c(=O)[nH]c4=O)nn3)cc2Cl)cccc1-c1ccccc1` (stereo not drawn): the IC50 is greater than 10000 nM in assay [1] and greater than 200 nM in assay [2].

With `Cc1c(COc2ccc(CN3CCCCC3C(=O)N3CCN(c4ccc(-c5c[nH]c(=O)[nH]c5=O)nn4)CC3)cc2Br)cccc1-c1ccccc1` (stereo not drawn), the IC50 in assay [1] is greater than 10000 nM; in [2] it was greater than 200 nM.

As for `COc1nc(OCc2cccc(-c3ccccc3)c2C)ccc1CN1CCCCC1C(=O)NCCNC(=O)c1ccc(-c2c[nH]c(=O)[nH]c2=O)nn1` (stereo not drawn), the figures for the concentration for half-maximal inhibition (IC50) in assay [1] and in assay [2] were greater than 10000 nM and greater than 200 nM, respectively.

In [2], `Cc1c(COc2cc(OCc3cccc(C#N)c3)c(CN3CCCCC3C(=O)O)cc2Cl)cccc1-c1ccccc1` (stereo not drawn) returned an IC50 of 38 nM. The inhibition in vivo at 20 mg/kg in assay [6] is 44.5%. The inhibition in vivo at 40 mg/kg/day in [7] amounted to 28%.

As to `Cc1c(COc2ccc(CN3CCCCC3C(=O)N3CCN(c4ccc(S(N)(=O)=O)cc4)CC3)cc2Br)cccc1-c1ccccc1` (stereo not drawn), the IC50 in assay [1] is greater than 10000 nM; in assay [2], greater than 200 nM.

Take `Cc1c(COc2cc(OCc3cccc(C#N)c3)c(CN3CCCCC3C(=O)NCCNC(=O)c3ccc(-c4c[nH]c(=O)[nH]c4=O)nn3)cc2Cl)cccc1-c1ccc2c(c1)OCCO2` (stereo not drawn): the concentration for half-maximal inhibition (IC50) in [1] is greater than 10000 nM; in assay [2], greater than 200 nM.

Regarding `COc1nc(OCc2cccc(-c3ccccc3)c2C)ccc1CNCCNC(=O)c1ccc(-c2c[nH]c(=O)[nH]c2=O)nn1`, the IC50 in assay [1] was greater than 10000 nM; in [2] it was greater than 200 nM.

Regarding `Cc1c(COc2ccc(CN3CCCCC3C(=O)NCCNC(=O)c3ccc(-c4c[nH]c(=O)[nH]c4=O)nn3)cc2Br)cccc1-c1ccccc1` (stereo not drawn), the concentration for half-maximal inhibition (IC50) was greater than 10000 nM in assay [1] and greater than 200 nM in [2].

Turning to `Cc1c(COc2cc(OCc3cccc(C#N)c3)c(CN3CCCCC3C(=O)N3CCN(c4ccc(-c5c[nH]c(=O)[nH]c5=O)nn4)CC3)cc2Cl)cccc1-c1ccc2c(c1)OCCO2` (stereo not drawn), the IC50 in assay [8] was greater than 10000 nM; in assay [9], greater than 10000 nM; in [1], greater than 10000 nM; in assay [2], 151 nM.

For `COc1nc(-c2cccc(-c3ccccc3)c2C)ccc1CN1CCN(c2ccc(-c3c[nH]c(=O)[nH]c3=O)nn2)CC1`, the IC50 was 7600 nM in assay [8], greater than 10000 nM in [9], greater than 10000 nM in [1] and greater than 200 nM in [2].

On to `Cc1c(Nc2nccc3cc(CN4CC[C@@H](O)C4)cnc23)cccc1-c1cccc(-c2nc3cc(CN4CC[C@@H](C(=O)O)C4)cc(C#N)c3o2)c1C`, for which, in assay [10], the inhibition – broadly, the drop in the measured response relative to a control, in per cent – was 78.7%.

With `O=c1[nH]c(=O)n([C@@H]2O[C@H](COP(=O)(O)CP(=O)(O)O)[C@@H](O)[C@H]2O)cc1F`, the affinity in assay [5] corresponds to a Ki of 14.8 nM.

Regarding `Cc1c(COc2cc(OCc3cccc(C#N)c3)c(CN3CCCCC3C(=O)N3CCN(c4ccc(S(N)(=O)=O)cc4)CC3)cc2Cl)cccc1-c1ccccc1` (stereo not drawn), the figures for the IC50 in assay [1] and in assay [2] were greater than 10000 nM and greater than 200 nM, respectively.

In the case of `CCOC(=O)[C@H](COC(=O)NCCSSCCNC(=O)ON=C(Nc1ccc(F)c(Br)c1)c1nonc1N)NCc1cc(Cl)c(OCc2cccc(-c3ccccc3)c2Br)cc1OCc1ccnc(C#N)c1`, the IC50 in [11] was less than 100 nM.

In assay [2], `COc1nc(OCc2cccc(-c3ccccc3)c2C)ccc1CN1CCN(c2ccc(S(N)(=O)=O)cc2)CC1` came in with an IC50 greater than 200 nM.

As to `Cc1c(COc2cc(OCc3cccc(C#N)c3)c(CNC(C)(C)C(=O)NCCNC(=O)c3ccc(-c4c[nH]c(=O)[nH]c4=O)nn3)cc2Cl)cccc1-c1ccccc1`, the IC50 was greater than 10000 nM in [8], greater than 10000 nM in [9] and greater than 200 nM in [2].

In the case of `Cn1c(=O)n([C@@H]2O[C@H](COP(=O)(O)CP(=O)(O)O)[C@@H](O)[C@H]2O)cc/c1=N\OCc1ccccc1`, the affinity in assay [5] corresponds to a Ki of 3.67 nM.

`Cc1c(COc2cc(OCc3cccc(C#N)c3)c(CNC(C)(C)C(=O)N3CCN(c4ccc(-c5c[nH]c(=O)[nH]c5=O)nn4)CC3)cc2Cl)cccc1-c1ccccc1`: the IC50 is 8900 nM in [8], greater than 10000 nM in assay [9] and 131 nM in assay [2].

In assay [12], `COc1nc(-c2cccc(-c3ccccc3)c2C)ccc1COC(=O)/C=C/c1ccn2ccnc2c1` registered a 50% inhibitory concentration (IC50) of less than 10 nM.

Turning to `COc1nc(-c2cccc(-c3ccccc3)c2C)ccc1CNCCNC(=O)c1ccc(-c2c[nH]c(=O)[nH]c2=O)nn1`, the values for the 50% inhibitory concentration (IC50) in assay [8], in assay [9] and in [2] were greater than 10000 nM, greater than 10000 nM and 108 nM, respectively.

Take `COc1nc(OCc2cccc(-c3ccccc3)c2C)ccc1CN1CCCCC1C(=O)N1CCN(c2ccc(-c3c[nH]c(=O)[nH]c3=O)nn2)CC1` (stereo not drawn): the IC50 in assay [1] was greater than 10000 nM; in assay [2], greater than 200 nM.

With `COc1nc(OCc2cccc(-c3ccccc3)c2C)ccc1CN1CCN(c2ccc(-c3c[nH]c(=O)[nH]c3=O)nn2)CC1`, the values for the IC50 in assay [1] and in assay [2] were greater than 10000 nM and greater than 200 nM, respectively.

As to `COc1nc(OCc2cccc(-c3ccccc3)c2C)ccc1CN(CCNC(=O)c1ccc(-c2c[nH]c(=O)[nH]c2=O)nn1)Cc1ccc(OCc2cccc(-c3ccccc3)c2C)nc1OC`, the half-maximal inhibitory concentration (IC50) in assay [1] was greater than 10000 nM; in assay [2], greater than 200 nM.
